Source: patent US20170003275A1, “METHOD TO IDENTIFY COMPOUNDS ABLE TO BIND TO THE ROSSMANN FOLD OF C-TERMINAL-BINDING PROTEINS, IDENTIFIED COMPOUNDS AND MEDICAL USES THEREOF” (CONSIGLIO NAZIONALE DELLE RICERCHE, priority 2013, published 2017)
Where two headings read alike, the source gives them in different places.

Key:
recombinant BARS = molecular target: T1, recombinant BARS (Rattus norvegicus, UniProt Q9Z2F5); experiment: NAD competition assay ([3H]-NAD+ binding to BARS, dot blot); settings: for NAD Displac. (%): 10 μM [3H]-NAD+, molecules 0.01 to 100 μM, 2 h 37° C.; for competition for the binding of NAD to BARS (selection): 0.01 to 100 μM
T1 construct: His; made in house
Method: Five μg of recombinant BARS were incubated for 2 h at 37° C. in 100 μl buffer (20 mM HEPES at pH 7.4, 25 mM NaCl and 10 μM [^3H]-NAD^+ (specific activity: 1 μCi/μmol)) in the presence of a range of concentrations (from 0.01 to 100 μM) of the molecules listed in table 1. At the end of the incubation BARS was recovered by trapping it to nitrocellulose using a Dot-Blot apparatus (Bio-Rad Laboratories, UK) according to manufacturer instruction. The samples were washed three times in ice-cold HEPES buffer (20 mM, pH 7.4). The amount of radiolabelled NAD bound to BARS was measured using a BetaImager (BioSpace Lab); the total amount of BARS bound to nitrocellulose was evaluated by red ponceau staining (Sigma-Aldrich) according to manufacturer instructions. Quantitative analyses were performed using GraphPad Prism Software.
A second virtual library was performed using the whole KEGG COMPOUND Database. […] To rank the molecules according to their affinity for BARS, the inventors set up a new assay for determining the capability of the 28 candidate molecules to compete for the binding of NAD to BARS. To this purpose, radiolabeled NAD and recombinant BARS were incubated for 2 h in the presence of a range of concentrations (from 0.01 to 100 μM) of the molecules. At the end of the incubation BARS was recovered by trapping it to nitrocellulose using a dot blot apparatus, and the radiolabelled NAD bound to BARS was evaluated by measuring the radioactivity using a BetaImager (BioSpace Lab).

HeLa cells = experiment: Cell viability assay (Hoechst cell number); settings: for effect on cell viability: even at 100 microM; for 50% Viability: 0.01 to 100 μM
Method: Quantitative analyses were performed using a GraphPad Prism Software.
At the end of the incubation the cells have been fixed, stained with Hoechst to label the DNA and analysed using a fluorescence microscope for the automated images acquisition and analysis (Olympus ScaR). […] An EC50 was calculated for the remaining molecules.

[1] = tested on: Zonula Occludens (ZO1), CtBP target gene; experiment: Expression of CtBP target genes, Western blot of Zonula Occludens; assay type: cell-based, human; settings: HeLa; for protein levels of Zonula Occludes: 2 and 4 days, Western blot; for minimal effective concentration: minimum effective concentration, Zonula Occludens protein, read-out: CtBP target genes increase (corepressive activity inhibition) Western Blot
Method: At the end of the incubations part of the samples was analyzed by western blot. To this purpose, the samples were washed with ice-cold PBS and lysed in 100 μl of SDS sample buffer. The samples were then separated on 8% SDS-PAGE gels, transferred onto nitrocellulose, and subjected to Western blotting using an antibody against Zonula Occludens (anti ZO1; Cell Signaling N. Cat. 5406) and an antibody against GAPDH (AbD Serotec) as a reference. The anti ZO1 antibody was used at a 1:1000 dilution; the anti GAPDH antibody was used at an 1:100000 dilution. The nitrocellulose membranes were subjected to ECL (as described above). The freeware ImageJ software (http://imagej.nih.gov) was used for quantitative analysis.

[2] = Homo sapiens, 48 h, read-out: 50% Viability

| SMILES | NAD Displac. (%) (recombinant BARS) | effect on cell viability (HeLa cells; 48 h) | protein levels of Zonula Occludes [1] | minimal effective concentration ([1]; Homo sapiens) [µM] | competition for the binding of NAD to BARS (selection) (recombinant BARS) | EC50 (HeLa cells; [2]) [µM] | EC50 (HeLa cells; read-out: 50% Viability, 48 h, 0.01 to 100 μM) [µM] | minimal effective concentration [1] [µM] | 50% Viability (HeLa cells; 48 h) |
| --- | --- | --- | --- | --- | --- | --- | --- | --- | --- |
| C[C@H]1[C@H](NC(=O)C(=NOC(C)(C)C(=O)O)c2csc(N)n2)C(=O)N1S(=O)(=O)O (stereo in doubt) [C28, 2-[(Z)-[1-(2-amino-1,3-thiazol-4-yl)-2-[[(2S,3S)-2-methyl-4-oxo-1-sulfoazetidin-3-yl]amino]-2-oxoethylidene]amino]oxy-2-methylpropanoic acid] | 15 | did not affect (or had minor effects) | able to increase | 1 |  |  |  |  |  |
| CC(=O)CC(c1ccccc1)c1c(O)c2ccccc2oc1=O (stereo not drawn) [C1, 4-Hydroxy-3-(3-oxo-1-phenylbutyl)-2H-1-benzopyran-2-one] | 15 | did not affect (or had minor effects) | able to increase | 100 | best competitors | > 100 |  |  |  |
| NS(=O)(=O)Oc1ccc2c3c(c(=O)oc2c1)CCCCC3 [C3, Sulfamic acid 6-oxo-6,7,8,9,10,11-hexahydrocyclohepta[c]-1-benzopyran-3-yl ester] |  |  |  |  |  | 10 |  |  |  |
| CC(=O)CC(c1ccc(Cl)cc1)c1c(O)c2ccccc2oc1=O (stereo not drawn) [C4, 3-[1-(4-chlorophenyl)-3-oxobutyl]-4-hydroxychromen-2-one] | 20 | did not affect (or had minor effects) | able to increase | 10 | best competitors | > 100 |  |  |  |
| CC(=O)CC(c1ccc([N+](=O)[O-])cc1)c1c(O)c2ccccc2oc1=O (stereo not drawn) [C5, 4-Hydroxy-3-[1-(4-nitrophenyl)-3-oxobutyl]-2H-1-benzopyran-2-one] |  | did not affect (or had minor effects) |  |  |  | > 100 |  |  |  |
| COc1cc(CNC(=O)CCCC/C=C/C(C)C)ccc1O [C6, N-(4-Hydroxy-3-methoxybenzyl)-8-methyl-6(E)-nonenamide 8-Methyl-N-vanillyl-trans-6-nonenamide] | 20 | did not affect (or had minor effects) |  |  | best competitors | > 100 |  |  |  |
| O=C1C2C3c4ccccc4C(c4ccccc43)C2C(=O)N1C(CO)(CO)CO [C8, (9R,10S,11S,15R)-13-(1,3-dihydroxy-2-(hydroxymethyl)propan-2-yl)-10,11-dihydro-9H-9,10-[3,4]epipyrroloanthracene-12,14(13H,15H) dione] |  | did not affect (or had minor effects) | able to increase | 10 |  | > 100 |  |  |  |
| CN1CCc2c(sc(/N=C/c3cccs3)c2C(N)=O)C1 [C9, 6-methyl-2-[(E)-(thiophen-2-ylmethylidene)amino]-4H,5H,6H,7H-thieno[2,3-c]pyridine-3-carboxamide] |  | did not affect (or had minor effects) | able to increase |  |  |  | > 100 | 10 |  |
| CCCCOc1ccc(C2=N/C(=C\c3cc(OC)c(OC)cc3OC)C(=O)O2)cc1 [C10, (4Z)-2-(4-butoxyphenyl)-4-[(2,4,5-trimethoxyphenyl)methylidene]-4,5-dihydro-1,3-oxazol-5-one] | 30 | did not affect (or had minor effects) |  |  | best competitors |  |  |  | Little |
| Cc1c(Cc2c(Cl)cccc2Cl)c(=O)oc2cc(OCC(=O)OCC(=O)c3ccc(Cl)cc3)ccc12 [C12, 2-(4-chlorophenyl)-2-oxoethyl 2-{[3-(2,6-dichlorobenzyl)-4-methyl-2-oxo-2H-chromen-7-yl]oxy}acetate] | 23 | did not affect (or had minor effects) |  |  | best competitors |  |  |  | Little |
| O=C1OC(c2c(O)c3ccccc3oc2=O)c2ccccc21 (stereo not drawn) [C14, 4-hydroxy-3-(3-oxo-1,3-dihydroisobenzofuran-1-yl)-2H-chromen-2-one] |  |  |  |  |  | 10 |  |  |  |
| COc1ccc(-c2coc3cc(O[C@@H]4O[C@H](CO)[C@@H](O)[C@H](O)[C@H]4O)ccc3c2=O)cc1 [C15, 3-(4-methoxyphenyl)-7-{[(2S,3R,4S,5S,6R)-3,4,5-trihydroxy-6-(hydroxymethyl)oxan-2-yl]oxy}-4H-chromen-4-one] |  | did not affect (or had minor effects) | able to increase | 5 |  |  |  |  | Little |
| O=C(CCc1ccc(O)cc1)c1c(O)cc(O)cc1O[C@@H]1O[C@H](CO)[C@@H](O)[C@H](O)[C@H]1O [C16, 1-(2,4-dihydroxy-6-{[(2S,3R,4S,5S,6R)-3,4,5-trihydroxy-6-(hydroxymethyl)oxan-2-yl]oxy}phenyl)-3-(4-hydroxyphenyl)propan-1-one] |  | did not affect (or had minor effects) |  |  |  | > 100 |  |  |  |
| COc1cc(C2Oc3c(O)cc(C4Oc5cc(O)cc(O)c5C(=O)C4O)cc3C2CO)ccc1O (stereo not drawn) [C17, 3beta,5,7-Trihydroxy-2alpha-[7-hydroxy-2beta-(4-hydroxy-3-methoxyphenyl)-3alpha-(hydroxymethyl)-2,3-dihydrobenzofuran-5-yl]-2,3-dihydro-4H-benzo[b]pyran-4-one] |  | did not affect (or had minor effects) |  |  |  | > 100 |  |  |  |
| O=C(O)Cc1nn(Cc2nc3cc(C(F)(F)F)ccc3s2)c(=O)c2ccccc12 [C18, 2-[4-Oxo-3-[5-(trifluoromethyl)benzothiazol-2-ylmethyl]-3,4-dihydrophthalazin-1-yl]acetic acid] |  | did not affect (or had minor effects) |  |  |  |  |  |  | Little |
| C#C[C@]1(O)CC[C@H]2[C@@H]3CCc4cc(OC5CCCC5)ccc4[C@H]3CC[C@@]21C [C19, 17alpha-Ethynylestradiol 3-cyclopentyl ether] |  |  |  |  |  | 1 |  |  |  |
| NC(=O)[C@@H]1CCCN1C(=O)[C@H](Cc1cnc[nH]1)NC(=O)[C@@H]1CCC(=O)N1 [C21, (2S)-N-[(2S)-1-[(2S)-2-carbamoylpyrrolidin-1-yl]-3-(1H-imidazol-5-yl)-1-oxopropan-2-yl]-5-oxopyrrolidine-2-carboxamide] |  | did not affect (or had minor effects) |  |  |  | > 100 |  |  |  |
| O=P(O)(O)C(O)(Cc1cccnc1)P(=O)(O)O [C26, [1-hydroxy-1-phosphono-2-(pyridin-3-yl)ethyl]phosphonic acid] | 30 | did not affect (or had minor effects) | able to increase | 1 | best competitors | > 100 |  |  |  |
| NCc1ccccc1CC(=O)N[C@@H]1C(=O)N2C(C(=O)O)=C(CSc3nnnn3CC(=O)O)CS[C@H]12 [C29, (6R,7R)-7-[2-[2-(Aminomethyl)phenyl]acetamido]-3-[1-(carboxymethyl)-1H-tetrazol-5-ylsulfanylmethyl]-8-oxo-5-thia-1-azabicyclo[4.2.0]-2-octene-2-carboxylic acid] | 35 | did not affect (or had minor effects) |  |  | best competitors | > 100 |  |  |  |
